Data taken from patent US12048685B2, “Transient receptor potential cation channel subfamily m member 8 (TRPM8) antagonists and methods of use” (Ora, Inc., priority 2015, dated 2024).
Where a name gives a salt, the structure may show the parent alone.

Experiments:
[1] = tested on: Balb/C mice; conditions: 15 minutes and 24 hours post TRPM8 antagonist dose (0.01%, 0.05%, 0.10%), immediately post menthol dose, water control, FIG. 6
Procedure: Behavioral endpoints, e.g. blinking for balb/cs nice, was tested. […] Treatment of the mice with water was used as a control. TRPM8 antagonist was used at concentrations of 0.01%, 0.05% and 0.10%.

[2] = Ocular discomfort on exposure to a Controlled Adverse Environment (CAE); format: in vivo, human; conditions: CAE for 25 minutes, asked every 5 minutes, p<0.01, FIGS. 4A and B
Procedure: (§1) A series of experiments were carried out assessing the clinical signs and symptoms of dry eye disease or severe dry eye disease using a commercially available TRPM8 antagonist, N-(2-Aminoethyl)-N-(4-(benzyloxy)-3-methoxybenzyl)thiophene-2-carboxamide hydrochloride, N-(2-Aminoethyl)-N-[[3-methoxy-4-(phenylmethoxy)phenyl]methyl]-2-thiophenecarboxamide hydrochloride (Sigma Aldrich M8-B hydrochloride (SML0893)), shown below as Compound I, at a concentration of 0.1% (vs placebo), administered unilaterally.
(§2) Post-dose, exposure to Menthol (ROHTO Hydra), as well as to an adverse environment (CAESM), was used to elicit symptomology in 3 patients with healthy eyes. Validated symptom scales were used to collect levels of discomfort secondary to the exposures (Ora Calibra™ Ocular Discomfort Questionnaire, Drop Comfort Questionnaire). A summary of the findings is presented below.
The effect of CAE exposure after dosing with Compound I or placebo was examined. After dosing with Compound I or placebo, subjects were exposed to a Controlled Adverse Environment (CAE) for 25 minutes, in order to elicit symptomology similar in nature to dry eye symptoms. An Ocular Discomfort Questionnaire (0-4 scale) was asked every 5 minutes.

[3] = Corneal sensitivity measured by Cochet Bonnet after topical dosing; format: in vivo, human
Procedure: as §1, §2
In a first set of experiments, the effect of Compound I on corneal sensitivity was examined. Subjects (shown by initials E-A, KJL, M-C) were dosed with 20 ul of Compound I (0.1%) or a placebo (BSS).

[4] = Ocular discomfort on exposure to Turbo-CAE after CAE (severe dry eye symptoms); format: in vivo, human; conditions: 15 minutes of Turbo-CAE after 25-minute CAE, p<0.01, FIGS. 5A and B
Procedure: as §1, §2
Next, the effect of Turbo-CAE exposure after dosing with Compound I or placebo was examined. After 25-minute Controlled Adverse Environment (CAE) exposure, subjects were exposed to 15 minutes of Turbo-CAE, in order to elicit symptomology similar in nature to severe dry eye symptoms. An Ocular Discomfort Questionnaire (0-4 scale) was asked every 5 minutes.

[5] = molecular target: T1, TRPM-8 channels (Homo sapiens, UniProt Q7Z2W7); assay: Post-menthol treatment symptoms (Drop Discomfort) after dosing, menthol-containing eyedrop (ROHTO Hydra); format: in vivo
T1 construct: from tissue; host or cells: eye (ocular surface) of living human subjects
T1 sequence (Q7Z2W7 whole entry): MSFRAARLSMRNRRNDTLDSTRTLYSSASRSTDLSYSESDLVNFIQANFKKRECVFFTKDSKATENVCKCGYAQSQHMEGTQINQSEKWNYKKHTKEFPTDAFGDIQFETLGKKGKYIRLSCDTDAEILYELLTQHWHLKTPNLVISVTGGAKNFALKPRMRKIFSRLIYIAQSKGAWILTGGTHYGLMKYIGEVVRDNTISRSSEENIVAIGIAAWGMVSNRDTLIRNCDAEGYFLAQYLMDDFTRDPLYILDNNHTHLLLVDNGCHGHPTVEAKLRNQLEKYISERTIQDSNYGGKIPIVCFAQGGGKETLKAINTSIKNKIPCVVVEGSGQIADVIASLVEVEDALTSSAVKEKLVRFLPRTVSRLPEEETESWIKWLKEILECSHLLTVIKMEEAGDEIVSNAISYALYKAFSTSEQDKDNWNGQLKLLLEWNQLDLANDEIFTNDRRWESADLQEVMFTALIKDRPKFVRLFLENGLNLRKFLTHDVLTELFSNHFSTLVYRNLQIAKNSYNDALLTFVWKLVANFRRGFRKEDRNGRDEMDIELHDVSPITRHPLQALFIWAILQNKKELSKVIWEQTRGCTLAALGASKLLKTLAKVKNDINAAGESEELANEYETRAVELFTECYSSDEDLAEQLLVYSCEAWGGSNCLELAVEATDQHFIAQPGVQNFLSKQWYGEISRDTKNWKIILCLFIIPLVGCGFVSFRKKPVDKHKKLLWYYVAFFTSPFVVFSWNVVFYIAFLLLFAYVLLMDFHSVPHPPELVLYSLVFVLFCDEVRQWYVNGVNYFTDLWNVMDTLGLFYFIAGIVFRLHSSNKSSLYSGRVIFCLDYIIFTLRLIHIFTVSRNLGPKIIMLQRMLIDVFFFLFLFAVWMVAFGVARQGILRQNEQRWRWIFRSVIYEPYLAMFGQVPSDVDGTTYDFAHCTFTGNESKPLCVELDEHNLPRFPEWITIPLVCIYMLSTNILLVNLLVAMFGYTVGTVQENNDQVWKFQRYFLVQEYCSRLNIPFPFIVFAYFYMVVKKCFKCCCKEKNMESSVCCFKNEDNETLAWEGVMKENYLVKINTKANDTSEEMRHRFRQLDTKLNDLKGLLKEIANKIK
Excerpt: Post-dose, exposure to Menthol (ROHTO Hydra), as well as to an adverse environment (CAESM), was used to elicit symptomology in 3 patients with healthy eyes. Validated symptom scales were used to collect levels of discomfort secondary to the exposures (Ora Calibra™ Ocular Discomfort Questionnaire, Drop Comfort Questionnaire). A summary of the findings is presented below. The effect of topical menthol application after dosing with Compound I or placebo was examined. After dosing with Compound I or placebo, 1 drop menthol-containing OTC eyedrop were administered bilaterally (ROHTO Hydra). Menthol is known to act upon TRPM-8 channels, effectively causing neural activity similar in nature to exposure to cold temperature. As such, menthol was used to induce a “cooling” symptom. […] Baseline (pre-menthol) symptoms were “0” for each eye, for all 3 subjects (data not shown).

Compound	blink rate per minute [1]	symptom scores (Ocular Discomfort Questionnaire, 0-4 scale) vs placebo [2]	effect on corneal sensitivity ([3]; 20 ul of 0.1%, unilateral, vs placebo (BSS), 3 subjects with healthy eyes, Cochet Bonnet, FIG. 2)	decrease in sensitivity ([3]; Subject, 70 mm to 65 mm, 20 ul of 0.1%) [mm]	changes in sensitivity ([3]; Subjects E-A and M-C, 20 ul of 0.1%)	difference in corneal sensitivity pre- to post-dose ([3]; p=0.42, 3 subjects)	symptom scores (Ocular Discomfort Questionnaire, 0-4 scale) vs placebo [4]	action of menthol (cooling symptom) ([5]; 0.1% dosed before 1 drop menthol-containing OTC eyedrop bilaterally, FIGS. 3A and B)	subject-reported symptom scores (Drop Discomfort, 0-10 scale) vs placebo ([5]; post-menthol, treated eye vs placebo eye, p<0.01, 3 subjects)
N-(2-Aminoethyl)-N-(4-(benzyloxy)-3-methoxybenzyl)thiophene-2-carboxamide hydrochloride [Compound I]	reproducibly blocked	–	–	–	–	–	–	–	–
COc1cc(CN(CCN)C(=O)c2cccs2)ccc1OCc1ccccc1 [Compound I, N-(2-Aminoethyl)-N-(4-(benzyloxy)-3-methoxybenzyl)thiophene-2-carboxamide hydrochloride]	–	significantly lower symptom scores than placebo	minimal effect	5	no detectable changes	No significant difference	significantly lower symptom scores than placebo	effectively block the action of menthol	significantly lower symptom scores than placebo
CC1CCC(C(C)C)C(O)C1 (stereo not shown) [menthol]	increase in blink rate	–	–	–	–	–	–	–	–
